Results reported in patent US10227357B2, “Compounds and methods for kinase modulation, and indications therefor” (Plexxikon Inc., priority 2012, dated 2019).

target: T1, c-kit mutant D816V (Homo sapiens, UniProt P10721, D816V/DEL694-753); assay: c-Kit mutant D816V biochemical assay, AlphaScreen; conditions: c-kit D816V biochemical inhibitory activity; read-out: Biochemical activity (IC50 μM) Kit D816V
T1 construct: residues 551-934, kinase insertion domain residues 694-753 deleted; 6x-histidine (N); made in house; host or cells: E. coli Arctic Express (DE3) RIL (Stratagene)
In short: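 Eight-point, threefold compound series incubated 30 min at room temperature with E. coli-produced D816V kinase, 10 μM ATP, Mg2+/Mn2+ HEPES buffer pH 7.2 and 5% DMSO. After EDTA stop, streptavidin and anti-phosphotyrosine (PY20) AlphaScreen beads gave the read-out, and IC50 was fitted from the concentration–signal curve.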

T1 sequence (P10721 with tags, fused parts or gaps DEL694-753/D816V): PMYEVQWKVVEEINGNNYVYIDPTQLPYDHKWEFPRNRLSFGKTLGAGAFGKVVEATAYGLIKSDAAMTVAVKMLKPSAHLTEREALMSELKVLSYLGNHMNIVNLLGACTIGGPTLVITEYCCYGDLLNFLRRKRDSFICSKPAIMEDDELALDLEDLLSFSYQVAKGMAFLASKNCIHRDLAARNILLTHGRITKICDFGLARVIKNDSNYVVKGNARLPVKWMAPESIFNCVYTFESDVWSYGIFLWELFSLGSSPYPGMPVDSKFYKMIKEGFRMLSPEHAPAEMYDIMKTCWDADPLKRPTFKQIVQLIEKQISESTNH

Row | Structure (SMILES) | IC50 [µM]
1 | Cn1cc(-c2cc3c(N4CCC(NS(=O)(=O)c5ccc(Cl)s5)CC4)ncnc3[nH]2)cn1 [P-0458, 5-chloro-N-[1-[6-(1-methylpyrazol-4-yl)-7H-pyrrolo[2,3-d]pyrimidin-4-yl]-4-piperidyl]thiophene-2-sulfonamide] | 0.0001 to 1
2 | C[C@H](NC(=O)N1CCN(c2ncnc3[nH]c(-c4cnn(C)c4)cc23)CC1(C)C)c1ccc(Cl)cc1 [P-0722, N-[(1S)-1-(4-chlorophenyl)ethyl]-2,2-dimethyl-4-[6-(1-methylpyrazol-4-yl)-7H-pyrrolo[2,3-d]pyrimidin-4-yl]piperazine-1-carboxamide] | 0.0001 to 1
3 | Cc1ccc(S(=O)(=O)Nc2ccc(-c3ncnc4[nH]cc(C)c34)cc2)cc1 [P-0448, 4-methyl-N-[4-(5-methyl-7H-pyrrolo[2,3-d]pyrimidin-4-yl)phenyl]benzenesulfonamide] | 0.0001 to 1
4 | C[C@@H]1CN(c2ncnc3[nH]c(-c4ccncc4)cc23)CCN1 [P-0074, 4-[(3R)-3-methylpiperazin-1-yl]-6-(4-pyridyl)-7H-pyrrolo[2,3-d]pyrimidine] | 10 to 200

target: T2, c-kit kinase (Homo sapiens, UniProt P10721); assay: c-Kit biochemical assay, AlphaScreen, 10 μM ATP; conditions: c-kit biochemical inhibitory activity; read-out: Biochemical activity (IC50 μM) Kit
T2 construct: The c-kit (or kinase domain thereof) is an active kinase in AlphaScreen; poly-Histidine tag (in-house protein only) (cleaved yes); host or cells: E. coli BL21(DE3)RIL, co-expressed with PTP1B
Method: IC50 values are determined with respect to inhibition of c-Kit kinase activity, where inhibition of phosphorylation of a peptide substrate is measured as a function of compound concentration. Compounds to be tested were dissolved in DMSO to a concentration of 20 mM. These were diluted 30 μl into 120 μl of DMSO (4 mM) and 1 μl was added to an assay plate. These were then serially diluted 1:3 (50 μl to 100 μl DMSO) for a total of 8 points. Plates were prepared such that each kinase reaction is 20 μl in 1× kinase buffer (50 mM HEPES, pH 7.2, 5 mM MgCl2, 5 mM MnCl2, 0.01% NP-40, 0.2% BSA), 5% DMSO and 10 μM ATP. […] C-kit kinase was at 0.1 ng per sample. After incubation of the kinase reaction for 1 hour at room temperature, 5 μl of donor beads (Streptavidin coated beads (Perkin Elmer Life Science) final concentration 1 μg/ml) in stop buffer (50 mM EDTA in 1× kinase buffer) was added, the sample was mixed and incubated for 20 minutes at room temperature before adding 5 μl of acceptor beads (PY20 coated beads (Perkin Elmer Life Science) final concentration 1 μg/ml) in stop buffer. The samples were incubated for 60 minutes at room temperature and the signal per well was read on AlphaQuest reader. […] The signal vs. compound concentration was used to determine the IC50.
Complementary DNA cloned from various human tissues were purchased from Invitrogen, and these were used as substrates in the PCR reactions. Specific custom synthetic oligonucleotide primers were designed to initiate the PCR product, and also to provide the appropriate restriction enzyme cleavage sites for ligation with the plasmids. The entire sequence encoding the enzyme was made through a gene synthesis procedure, using custom synthetic oligonucleotides covering the entire coding sequence (Invitrogen, see below).
The plasmid used for ligation with the kinase-encoding inserts was derivative of pET (Novagen) for expression using E. coli. The Kit kinase was engineered to include a Histidine tag for purification using metal affinity chromatography. The kinase-encoding plasmid was engineered as bicistronic mRNA to co-express a second protein that modifies the kinase protein during its expression in the host cell. Protein tyrosine phosphatase 1B (PTP), was co-expressed for dephosphorylation of the phospho-Tyrosines.
For protein expression, the plasmid containing the Kit gene was transformed into E. coli strains BL21(DE3)RIL and transformants selected for growth on LB agar plates containing appropriate antibiotics. Single colonies were grown overnight at 37° C. in 200 ml TB (Terrific broth) media. 16×1 L of fresh TB media in 2.8 L flasks were inoculated with 10 ml of overnight culture and grown with constant shaking at 37° C. Once cultures reached an absorbance of 1.0 at 600 nm, IPTG was added and cultures were allowed to grow for a further 12 to 18 hrs at temperatures ranging from 12-30° C. Cells were harvested by centrifugation and pellets frozen at […] until ready for lysis.
For protein Purification; frozen E. coli cell pellets were resuspended in lysis buffer and lysed using standard mechanical methods. Protein was purified via poly-Histidine tags using immobilized metal affinity purification IMAC. The Kit kinase was purified using a 3 step purification process utilizing; IMAC, size exclusion chromatography and ion exchange chromatography. The poly-Histidine tag was removed using Thrombin (Calbiochem).

T2 sequence (P10721 26-976): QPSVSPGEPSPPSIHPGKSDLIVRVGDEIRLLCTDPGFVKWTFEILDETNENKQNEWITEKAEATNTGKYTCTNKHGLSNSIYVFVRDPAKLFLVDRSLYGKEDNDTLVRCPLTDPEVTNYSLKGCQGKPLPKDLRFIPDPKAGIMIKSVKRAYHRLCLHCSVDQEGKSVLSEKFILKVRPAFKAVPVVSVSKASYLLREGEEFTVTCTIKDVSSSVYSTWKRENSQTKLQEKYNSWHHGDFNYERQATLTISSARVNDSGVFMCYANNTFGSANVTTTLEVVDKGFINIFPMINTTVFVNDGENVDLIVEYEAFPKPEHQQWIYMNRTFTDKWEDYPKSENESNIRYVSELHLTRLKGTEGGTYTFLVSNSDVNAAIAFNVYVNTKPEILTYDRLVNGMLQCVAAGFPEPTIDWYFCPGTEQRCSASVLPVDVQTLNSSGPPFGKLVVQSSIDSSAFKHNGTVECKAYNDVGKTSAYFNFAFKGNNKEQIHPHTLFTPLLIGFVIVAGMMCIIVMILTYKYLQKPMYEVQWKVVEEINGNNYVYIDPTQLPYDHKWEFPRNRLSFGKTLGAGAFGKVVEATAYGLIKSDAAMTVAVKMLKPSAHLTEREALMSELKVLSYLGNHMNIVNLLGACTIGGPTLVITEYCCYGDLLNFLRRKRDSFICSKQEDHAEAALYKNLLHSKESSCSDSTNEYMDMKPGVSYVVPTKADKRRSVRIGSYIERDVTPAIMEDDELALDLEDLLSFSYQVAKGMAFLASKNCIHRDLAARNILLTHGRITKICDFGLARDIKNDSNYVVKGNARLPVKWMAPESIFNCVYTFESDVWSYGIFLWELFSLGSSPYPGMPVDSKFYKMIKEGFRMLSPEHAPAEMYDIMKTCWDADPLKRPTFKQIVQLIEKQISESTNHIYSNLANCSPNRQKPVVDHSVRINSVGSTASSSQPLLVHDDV

Row | Structure (SMILES) | IC50 [µM]
5 | Cn1cc(-c2cc3c(N4CCC(NS(=O)(=O)c5ccc(Cl)s5)CC4)ncnc3[nH]2)cn1 [P-0458, 5-chloro-N-[1-[6-(1-methylpyrazol-4-yl)-7H-pyrrolo[2,3-d]pyrimidin-4-yl]-4-piperidyl]thiophene-2-sulfonamide] | 10 to 200
6 | C[C@H](NC(=O)N1CCN(c2ncnc3[nH]c(-c4cnn(C)c4)cc23)CC1(C)C)c1ccc(Cl)cc1 [P-0722, N-[(1S)-1-(4-chlorophenyl)ethyl]-2,2-dimethyl-4-[6-(1-methylpyrazol-4-yl)-7H-pyrrolo[2,3-d]pyrimidin-4-yl]piperazine-1-carboxamide] | 0.0001 to 1
7 | Cc1ccc(S(=O)(=O)Nc2ccc(-c3ncnc4[nH]cc(C)c34)cc2)cc1 [P-0448, 4-methyl-N-[4-(5-methyl-7H-pyrrolo[2,3-d]pyrimidin-4-yl)phenyl]benzenesulfonamide] | 1 to 10
8 | C[C@@H]1CN(c2ncnc3[nH]c(-c4ccncc4)cc23)CCN1 [P-0074, 4-[(3R)-3-methylpiperazin-1-yl]-6-(4-pyridyl)-7H-pyrrolo[2,3-d]pyrimidine] | 10 to 200
9 | O=C(NC1CCCCC1)NC1CCN(c2ncnc3[nH]ccc23)CC1 [P-0537, 1-cyclohexyl-3-[1-(7H-pyrrolo[2,3-d]pyrimidin-4-yl)-4-piperidyl]urea] | 10 to 200
10 | COc1cc2ncnc(-c3ccc(S(=O)(=O)NC4CC4)cc3)c2cc1OC [P-0277, N-cyclopropyl-4-(6,7-dimethoxyquinazolin-4-yl)benzenesulfonamide] | 10 to 200
11 | O=C(C1CCCC1)N1CCN(c2ncnc3[nH]ccc23)CC1 [P-0196, cyclopentyl-[4-(7H-pyrrolo[2,3-d]pyrimidin-4-yl)piperazin-1-yl]methanone] | 10 to 200
12 | O=C(NC1CCCC1)NC1CCN(c2ncnc3[nH]ccc23)CC1 [P-0526, 1-cyclopentyl-3-[1-(7H-pyrrolo[2,3-d]pyrimidin-4-yl)-4-piperidyl]urea] | 10 to 200
13 | CCCCNS(=O)(=O)c1ccc(-c2ncnc3[nH]c(-c4ccc(F)cc4)cc23)cc1 [P-0421, N-butyl-4-[6-(4-fluorophenyl)-7H-pyrrolo[2,3-d]pyrimidin-4-yl]benzenesulfonamide] | 10 to 200
14 | CCCC(=O)N1CCN(c2ncnc3[nH]ccc23)CC1 [P-0194, 1-[4-(7H-pyrrolo[2,3-d]pyrimidin-4-yl)piperazin-1-yl]butan-1-one] | 10 to 200
15 | COc1ccc(S(=O)(=O)N2CCN(c3ncnc4[nH]ccc34)CC2)c(N)c1 [P-0190, 5-methoxy-2-[4-(7H-pyrrolo[2,3-d]pyrimidin-4-yl)piperazin-1-yl]sulfonyl-aniline] | 10 to 200
16 | COc1cc2ncnc(-c3ccc(N)c(F)c3)c2cc1OC [P-0276, 4-(6,7-dimethoxyquinazolin-4-yl)-2-fluoro-aniline] | 1 to 10
17 | COc1cc2ncnc(-c3ccc(S(N)(=O)=O)cc3)c2cc1OC [P-0278, 4-(6,7-dimethoxyquinazolin-4-yl)benzenesulfonamide] | 10 to 200
18 | Cn1cc(-c2cc3c(C4=CCC(NS(=O)(=O)c5ccc(OC(F)(F)F)cc5)CC4)ncnc3[nH]2)cn1 (centres unmarked) [P-0545, N-[4-[6-(1-methylpyrazol-4-yl)-7H-pyrrolo[2,3-d]pyrimidin-4-yl]cyclohex-3-en-1-yl]-4-(trifluoromethoxy)benzenesulfonamide] | 1 to 10
19 | CCc1ccc(C(=O)N2CCN(c3ncnc4[nH]ccc34)CC2)cc1 [P-0197, (4-ethylphenyl)-[4-(7H-pyrrolo[2,3-d]pyrimidin-4-yl)piperazin-1-yl]methanone] | 1 to 10
20 | Cn1cc(-c2cc3ncnc(N4CCN(C(=O)Nc5ccccc5)CC4)c3s2)cn1 [P-0627, 4-[6-(1-methylpyrazol-4-yl)thieno[3,2-d]pyrimidin-4-yl]-N-phenyl-piperazine-1-carboxamide] | 1 to 10

Row | Structure (SMILES) | IC50 [µM]
21 | O=C(NC1CCN(c2ncnc3[nH]ccc23)CC1)c1ccccc1 [P-0531, N-[1-(7H-pyrrolo[2,3-d]pyrimidin-4-yl)-4-piperidyl]benzamide] | 10 to 200
22 | O=C(NC1CCN(c2ncnc3[nH]ccc23)CC1)C1CCCC1 [P-0529, N-[1-(7H-pyrrolo[2,3-d]pyrimidin-4-yl)-4-piperidyl]cyclopentanecarboxamide] | 10 to 200
23 | O=C(Nc1ccc(F)c(F)c1)N1CCN(c2ncnc3[nH]ccc23)CC1 [P-0175, N-(3,4-difluorophenyl)-4-(7H-pyrrolo[2,3-d]pyrimidin-4-yl)piperazine-1-carboxamide] | 10 to 200
24 | COc1cc2ncnc(-c3cccc(NS(=O)(=O)C4CC4)c3)c2cc1OC [P-0279, N-[3-(6,7-dimethoxyquinazolin-4-yl)phenyl]cyclopropanesulfonamide] | 10 to 200
25 | CCOc1ccc(NC(=O)NC2CCN(c3ncnc4[nH]ccc34)CC2)cc1 [P-0534, 1-(4-ethoxyphenyl)-3-[1-(7H-pyrrolo[2,3-d]pyrimidin-4-yl)-4-piperidyl]urea] | 10 to 200
26 | C[C@H](NC(=O)N1CCN(c2ncnc3ccsc23)CC1(C)C)c1cccc(Cl)c1 [P-0682, N-[(1S)-1-(3-chlorophenyl)ethyl]-2,2-dimethyl-4-thieno[3,2-d]pyrimidin-4-yl-piperazine-1-carboxamide] | 10 to 200
27 | Fc1ccc(-c2cc3c(-c4ccncc4)ncnc3[nH]2)cc1 [P-0392, 6-(4-fluorophenyl)-4-(4-pyridyl)-7H-pyrrolo[2,3-d]pyrimidine] | 0.0001 to 1
28 | CCCNC(=O)NC1CCN(c2ncnc3[nH]ccc23)CC1 [P-0536, 1-propyl-3-[1-(7H-pyrrolo[2,3-d]pyrimidin-4-yl)-4-piperidyl]urea] | 10 to 200
29 | CC(C)(C)c1cc2ncnc(N3CCN(C(=O)Nc4ccc(F)cc4)CC3)c2s1 [P-0639, 4-(6-tert-butylthieno[3,2-d]pyrimidin-4-yl)-N-(4-fluorophenyl)piperazine-1-carboxamide] | 10 to 200
30 | CCCS(=O)(=O)N1CCN(c2ncnc3[nH]ccc23)CC1 [P-0199, 4-(4-propylsulfonylpiperazin-1-yl)-7H-pyrrolo[2,3-d]pyrimidine] | 10 to 200
31 | CS(=O)(=O)NC1CCN(c2ncnc3[nH]c(C#CC4CC4)cc23)CC1 [P-0472, N-[1-[6-(2-cyclopropylethynyl)-7H-pyrrolo[2,3-d]pyrimidin-4-yl]-4-piperidyl]methanesulfonamide] | 10 to 200
32 | CC(C)(C)c1cc2ncnc(N3CCN(C(=O)NCc4ccc(F)cc4)CC3)c2s1 [P-0637, 4-(6-tert-butylthieno[3,2-d]pyrimidin-4-yl)-N-[(4-fluorophenyl)methyl]piperazine-1-carboxamide] | 10 to 200
33 | COc1ccc(NC(=O)N2CCN(c3ncnc4[nH]c(I)cc34)CC2)cc1 [P-0244, 4-(6-iodo-7H-pyrrolo[2,3-d]pyrimidin-4-yl)-N-(4-methoxyphenyl)piperazine-1-carboxamide] | 1 to 10
34 | O=S(=O)(NC1CCN(c2ncnc3[nH]c(-c4cc(Cl)cs4)cc23)CC1)c1ccc(OC(F)(F)F)cc1 [P-0670, N-[1-[6-(4-chloro-2-thienyl)-7H-pyrrolo[2,3-d]pyrimidin-4-yl]-4-piperidyl]-4-(trifluoromethoxy)benzenesulfonamide] | 10 to 200
35 | O=S(=O)(Nc1ccc(-c2ncnc3[nH]c(C(F)F)cc23)c(F)c1)c1ccc(Cl)cc1 [P-0310, 4-chloro-N-[4-[6-(difluoromethyl)-7H-pyrrolo[2,3-d]pyrimidin-4-yl]-3-fluoro-phenyl]benzenesulfonamide] | 1 to 10
